Our source for the IC50 values is patent US9040530B2, “1,2,4-triazine-6-carboxamide kinase inhibitors” (Portola Pharmaceuticals, Inc., priority 2012, dated 2015).

The assay has as its target T1, full length active recombinant SYK enzyme (Homo sapiens, UniProt P43405).
T1 construct: full length active recombinant SYK enzyme (Millipore, Calif.); purchased Millipore
Kind of assay: Inhibition of Syk tyrosine phosphorylation activity (LANCE TR-FRET kinase assay). It is filed as biochemical. The settings on record: 1 nM active SYK enzyme, 550 nM SYK-substrate, 100 μM ATP, 1 hour at room temperature. Background: In TR-FRET formats the signal depends on donor and acceptor labels being close together.
The IC50 is the concentration that inhibits the measured activity by half. As for `NC(=O)c1nnc(N[C@@H]2CCCC[C@@H]2N)nc1Nc1cc(Cl)c2ncccc2c1` [Example 176, 3-(((1R,2S)-2-aminocyclohexyl)amino)-5-((8-chloroquinolin-6-yl)amino)-1,2,4-triazine-6-carboxamide], the IC50 was under 1 nM.
Take `Cc1ccc(Nc2nc(N[C@@H]3CCCC[C@@H]3N)nnc2C(N)=O)cc1F` [Example 19, 3-(((1R,2S)-2-aminocyclohexyl)amino)-5-((3-fluoro-4-methylphenyl)amino)-1,2,4-triazine-6-carboxamide]: the IC50 is 1 to 10 nM.
The result for `Cn1cc(C#N)c2ccc(Nc3nc(N[C@@H]4CCCC[C@@H]4N)nnc3C(N)=O)cc21` [Example 136, 3-(((1R,2S)-2-aminocyclohexyl)amino)-5-((3-cyano-1-methyl-1H-indol-6-yl)amino)-1,2,4-triazine-6-carboxamide] reads 1 to 10 nM.
As for `NC(=O)c1nnc(N[C@H](CC(F)F)C(N)=O)nc1Nc1cc(Cl)c2ncccc2c1` [Example 185, (R)-3-((1-amino-4,4-difluoro-1-oxobutan-2-yl)amino)-5-((8-chloroquinolin-6-yl)amino)-1,2,4-triazine-6-carboxamide], the figure is 1 to 10 nM; as for `Cn1ccc2c(Nc3nc(N[C@@H]4CCCC[C@@H]4N)nnc3C(N)=O)cncc21` [Example 148, 3-(((1R,2S)-2-aminocyclohexyl)amino)-5-((1-methyl-1H-pyrrolo[2,3-c]pyridin-4-yl)amino)-1,2,4-triazine-6-carboxamide], 1 to 10 nM; as for `NC(=O)c1nnc(N[C@H](CC2CC2)C(N)=O)nc1Nc1ccc(Cl)c(Cl)c1` [Example 254, (R)-3-((1-amino-3-cyclopropyl-1-oxopropan-2-yl)amino)-5-((3,4-dichlorophenyl)amino)-1,2,4-triazine-6-carboxamide], 10 to 100 nM.
For the compound `NC(=O)c1nnc(N[C@@H]2CCCC[C@@H]2N)nc1Nc1ccc(F)c(Cl)c1` [Example 24, 3-(((1R,2S)-2-aminocyclohexyl)amino)-5-((3-chloro-4-fluorophenyl)amino)-1,2,4-triazine-6-carboxamide], the IC50 lay within 1 to 10 nM.
The result for `CC[C@@H](Nc1nnc(C(N)=O)c(Nc2ccc(Cl)c(C(F)(F)F)c2)n1)C(N)=O` [Example 240, (R)-3-((1-amino-1-oxobutan-2-yl)amino)-5-((4-chloro-3-(trifluoromethyl)phenyl)amino)-1,2,4-triazine-6-carboxamide] reads 100 to 1000 nM; that for `CC[C@@H](Nc1nnc(C(N)=O)c(Nc2cncs2)n1)C(N)=O` [Example 199, (R)-3-((1-amino-1-oxobutan-2-yl)amino)-5-(thiazol-5-ylamino)-1,2,4-triazine-6-carboxamide], 100 to 1000 nM.
As for `Cn1ccc2c(Nc3nc(N[C@@H]4CCOC[C@@H]4N)nnc3C(N)=O)cccc21` [Example 82, 3-(((3R,4R)-3-aminotetrahydro-2H-pyran-4-yl)amino)-5-((1-methyl-1H-indol-4-yl)amino)-1,2,4-triazine-6-carboxamide], the half-maximal inhibitory concentration (IC50) fell in the range of 1 to 10 nM.
The result for `CC(C)C[C@@H](Nc1nnc(C(N)=O)c(Nc2cccc3c2ccn3C)n1)C(N)=O` [Example 88, (R)-3-((1-amino-4-methyl-1-oxopentan-2-yl)amino)-5-((1-methyl-1H-indol-4-yl)amino)-1,2,4-triazine-6-carboxamide] reads 1 to 10 nM; that for `NC(=O)c1nnc(N[C@@H]2CCCC[C@@H]2N)nc1Nc1ccc(-n2nccn2)cc1` [Example 97, 5-((4-(2H-1,2,3-triazol-2-yl)phenyl)amino)-3-(((1R,2S)-2-aminocyclohexyl)amino)-1,2,4-triazine-6-carboxamide], 10 to 100 nM; that for `CC[C@@H](Nc1nnc(C(N)=O)c(Nc2ccc(C)c(C)c2)n1)C(N)=O` [Example 203, (R)-3-((1-amino-1-oxobutan-2-yl)amino)-5-((3,4-dimethylphenyl)amino)-1,2,4-triazine-6-carboxamide], 10 to 100 nM.
Take `Cn1ccc2ccc(Nc3nc(N[C@@H]4CCOC[C@@H]4N)nnc3C(N)=O)cc21` [Example 165, 3-(((3R,4R)-3-aminotetrahydro-2H-pyran-4-yl)amino)-5-((1-methyl-1H-indol-6-yl)amino)-1,2,4-triazine-6-carboxamide]: the IC50 fell in the range of 1 to 10 nM.
As for `NC(=O)c1nnc(N[C@@H]2CCCC[C@@H]2N)nc1Nc1cccc(-n2cncn2)c1` [Example 5, 5-((3-(1H-1,2,4-triazol-1-yl)phenyl)amino)-3-(((1R,2S)-2-aminocyclohexyl)amino)-1,2,4-triazine-6-carboxamide], the figure is 1 to 10 nM; as for `Cn1ccc2c(Nc3nc(NCc4cc[nH]n4)nnc3C(N)=O)cccc21` [Example 91, 3-(((1H-pyrazol-3-yl)methyl)amino)-5-((1-methyl-1H-indol-4-yl)amino)-1,2,4-triazine-6-carboxamide], 100 to 1000 nM; as for `Cc1ccc(Nc2nc(N[C@H](Cc3ccc(F)cc3)C(N)=O)nnc2C(N)=O)cc1` [Example 189, (R)-3-(1-amino-3-(4-fluorophenyl)-1-oxopropan-2-ylamino)-5-(p-tolylamino)-1,2,4-triazine-6-carboxamide], 10 to 100 nM.
The result for `NC(=O)c1nnc(N[C@@H]2CCOC[C@@H]2N)nc1Nc1ccc2ncccc2c1` [Example 55, 3-(((3R,4R)-3-aminotetrahydro-2H-pyran-4-yl)amino)-5-(quinolin-6-ylamino)-1,2,4-triazine-6-carboxamide] reads 1 to 10 nM; that for `Cc1ccc(Nc2nc(N[C@@H]3CCCC(F)(F)[C@@H]3N)nnc2C(N)=O)cc1C#N` [Example 233, 3-(((1R,2R)-2-amino-3,3-difluorocyclohexyl)amino)-5-((3-cyano-4-methylphenyl)amino)-1,2,4-triazine-6-carboxamide], 100 to 1000 nM.
As for `NC(=O)c1nnc(N[C@@H]2CCOC[C@@H]2N)nc1Nc1ccc(-c2ncco2)cc1` [Example 253, 3-(((3R,4R)-3-aminotetrahydro-2H-pyran-4-yl)amino)-5-((4-(oxazol-2-yl)phenyl)amino)-1,2,4-triazine-6-carboxamide], the figure is 10 to 100 nM; as for `Cc1ccc(Nc2nc(N[C@@H]3CCCC(F)(F)[C@@H]3N)nnc2C(N)=O)cc1F` [Example 205, 3-(((1R,2R)-2-amino-3,3-difluorocyclohexyl)amino)-5-((3-fluoro-4-methylphenyl)amino)-1,2,4-triazine-6-carboxamide], 10 to 100 nM; as for `NC(=O)c1nnc(N[C@@H]2CCCC(F)(F)[C@@H]2N)nc1Nc1ccc2scnc2c1` [Example 245, 3-(((1R,2R)-2-amino-3,3-difluorocyclohexyl)amino)-5-(benzo[d]thiazol-5-ylamino)-1,2,4-triazine-6-carboxamide], 10 to 100 nM.
In the case of `NC(=O)c1nnc(N[C@@H]2CCCC(F)(F)[C@@H]2N)nc1Nc1ccc2c(c1)CCC2` [Example 213, 3-(((1R,2R)-2-amino-3,3-difluorocyclohexyl)amino)-5-((2,3-dihydro-1H-inden-5-yl)amino)-1,2,4-triazine-6-carboxamide], the IC50 was in the range of 10 to 100 nM.
The result for `CCC(=O)N1CCC(c2ccc(Nc3nc(N[C@@H]4CCCC[C@@H]4N)nnc3C(N)=O)cc2)CC1` [Example 28, 3-(((1R,2S)-2-aminocyclohexyl)amino)-5-((4-(1-propionylpiperidin-4-yl)phenyl)amino)-1,2,4-triazine-6-carboxamide] reads 1 to 10 nM.
